Test results from ChEMBL document CHEMBL1152200, “Synthesis and biological evaluation of novel sulfonyl-naphthalene-1,4-diols as FabH inhibitors” (Bioorg Med Chem Lett, 2008).
Values after ≈ are worked out from the molar mass of the structure shown. Active and inactive are the calls of the source. The calls are words filed in the database; no cut-off is given here.

What was measured:
[1] = Inhibition of Escherichia coli FabH
[2] = molecular target: T1, Beta-ketoacyl-ACP-synthase III (Plasmodium falciparum, UniProt O77078); experiment: Inhibition of Plasmodium falciparum FabH
T1 sequence (O77078 whole entry): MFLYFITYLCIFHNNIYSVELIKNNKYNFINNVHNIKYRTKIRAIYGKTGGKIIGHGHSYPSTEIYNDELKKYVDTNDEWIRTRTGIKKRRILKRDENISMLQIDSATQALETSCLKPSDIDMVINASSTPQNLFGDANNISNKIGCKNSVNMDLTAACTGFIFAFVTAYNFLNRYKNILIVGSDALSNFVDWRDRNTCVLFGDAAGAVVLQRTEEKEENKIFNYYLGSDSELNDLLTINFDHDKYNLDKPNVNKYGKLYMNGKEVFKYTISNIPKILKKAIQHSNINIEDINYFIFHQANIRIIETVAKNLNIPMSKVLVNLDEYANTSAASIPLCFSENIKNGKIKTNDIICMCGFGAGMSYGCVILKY

[3] = molecular target: T2, Mycobacterial beta-ketoacyl-[acyl-carrier-protein] synthase III (Mycobacterium tuberculosis, UniProt P9WNG3); experiment: Inhibition of Mycobacterium tuberculosis FabH
T2 sequence (P9WNG3 whole entry): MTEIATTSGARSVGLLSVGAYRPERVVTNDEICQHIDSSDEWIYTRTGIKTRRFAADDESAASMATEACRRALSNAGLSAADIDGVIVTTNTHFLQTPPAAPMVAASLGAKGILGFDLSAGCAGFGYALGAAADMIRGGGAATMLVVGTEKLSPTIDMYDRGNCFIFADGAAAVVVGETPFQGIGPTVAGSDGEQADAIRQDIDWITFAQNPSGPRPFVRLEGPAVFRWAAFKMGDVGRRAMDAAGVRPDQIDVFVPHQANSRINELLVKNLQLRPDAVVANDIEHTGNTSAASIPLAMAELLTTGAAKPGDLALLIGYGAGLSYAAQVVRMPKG

[4] = system: Plasmodium falciparum; experiment: Antiplasmodial activity against chloroquine-sensitive Plasmodium falciparum D6; type: functional, organism-based
[5] = system: Escherichia coli; experiment: Inhibition of Escherichia coli FabH at below 10 uM
[6] = molecular target: T3, Beta-ketoacyl-ACP-synthase III (Plasmodium falciparum) (UniProt O77078); experiment: Inhibition of Plasmodium falciparum FabH at below 100 uM
T3 sequence (whole entry): T1 sequence (O77078 whole entry)

[7] = system: Escherichia coli; experiment: Antibacterial activity against Escherichia coli tolC mutant; type: functional
[8] = system: Escherichia coli; experiment: Inhibition of Escherichia coli FabH assessed as restoration activity in presence of phosphate buffer after 16 hrs; design: scale not given: the % may be the effect or the level left

O=S(=O)(c1ccccc1)c1cc(O)c2ccccc2c1O showed an IC50 [1] of 21.2 nM, an IC50 [2] of 279 nM and an IC50 [3] of 2.84 nM.
With Cc1ccc(S(=O)(=O)c2cc(O)c3cc4ccccc4cc3c2O)cc1 the IC50 [1] was 112 nM, the IC50 [2] was 341 nM and the IC50 [3] was 8.47 nM.
Work on O=S(=O)(c1ccc(Cl)cc1)c1cc(O)c2ccccc2c1O yielded an IC50 [1] of 8.8 nM, an IC50 [2] of 129 nM and an IC50 [3] of 3.61 nM. For the same molecule, the IC50 [4] was 3.23 µg/mL (≈ 9.65 µM).
With CC(=O)Nc1ccc(S(=O)(=O)c2cc(O)ccc2O)cc1 the IC50 [1] was > 10000 nM, the Activity [5] was “inactive” and the Activity [6] was “inactive”. The IC50 [3] was 31.4 nM, the MIC99 [7] was > 90 µg/mL and the IC50 [4] was 3.96 µg/mL (≈ 12.9 µM).
For Cc1ccc(S(=O)(=O)C2=CC(=O)c3ccccc3C2=O)cc1, the IC50 [1] was 187 nM, the IC50 [2] was 1420 nM and the IC50 [3] was 1.99 nM.
In the case of Cc1ccc(S(=O)(=O)c2cc(O)c3ccccc3c2O)cc1, the IC50 [1] is reported as 13.6 nM, the IC50 [2] is reported as 73.6 nM and the IC50 [3] is reported as 0.61 nM. The Activity [8] was 90%, the MIC99 [7] was 14.1 µg/mL (≈ 44.9 µM) and the IC50 [4] was 7.69 µg/mL (≈ 24.5 µM).
For Cc1ccc(S(=O)(=O)c2ccc3ccccc3c2)cc1, the IC50 [1] was > 10000 nM, the Activity [5] was “inactive” and the Activity [6] was “inactive”. For the same molecule, the IC50 [3] was 138 nM, the MIC99 [7] was > 90 µg/mL and the IC50 [4] was 8.74 µg/mL (≈ 31 µM).
With Cc1ccc(SC2=CC(=O)c3ccccc3C2=O)cc1 the Activity [5] was “inactive”, the Activity [6] was “inactive” and the IC50 [3] was 112 nM.
CCCc1ccc(S(=O)(=O)c2cc(O)c3ccccc3c2O)cc1 showed an IC50 [1] of 9.7 nM, an IC50 [2] of 72.6 nM and an IC50 [3] of 3.09 nM.
With CC(=O)Nc1ccc(S(=O)(=O)c2cc(O)c3ccccc3c2O)cc1 the IC50 [1] was 11.8 nM, the IC50 [2] was 29.6 nM and the IC50 [3] was 3.76 nM. For the same molecule, the MIC99 [7] was 12.3 µg/mL (≈ 34.4 µM) and the IC50 [4] was 4.98 µg/mL (≈ 13.9 µM).
O=C(O)CCS(=O)(=O)c1cc(O)c2ccccc2c1O showed an IC50 [1] of 96.5 nM, an IC50 [2] of 46.5 nM and an IC50 [3] of 3.53 nM.
With CS(=O)(=O)c1cc(O)c2ccccc2c1O the IC50 [1] was 87.3 nM, the IC50 [2] was 27.4 nM and the IC50 [3] was 3.53 nM. The MIC99 [7] was 9.7 µg/mL (≈ 40.7 µM).
O=S(=O)(c1ccc2ccccc2c1)c1cc(O)c2ccccc2c1O gave an IC50 [1] of 15.4 nM, an IC50 [2] of 393 nM and an IC50 [3] of 1.49 nM.
For Cc1ccc(S(=O)(=O)c2cc(O)ccc2O)cc1, the IC50 [1] was > 10000 nM, the Activity [5] was “inactive” and the Activity [6] was “inactive”. For the same molecule, the IC50 [3] was 34.4 nM, the MIC99 [7] was > 90 µg/mL and the IC50 [4] was 31.3 µg/mL (≈ 119 µM).
